{"source": "patent US9695155B2", "about": "“Herbicidal substituted pyrimidinyloxy benzene compounds” (E. I. DU PONT DE NEMOURS AND COMPANY, priority 2013, dated 2017)", "key": {"[1]": {"tested_on": "dayflower", "test": "Test E preemergence", "assay_type": "in vivo, Commelina virginica", "details": "for Dayflower, VA plant response rating: scale 0 to 100 (0 no effect, 100 complete control); for Plant response rating, Dayflower, VA: scale 0 to 100, 0 no effect, 100 complete control", "summary_of_the_method": "(§1)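 Response was scored visually on a 0-100 scale (100 = complete control) versus controls after 14 to 21 days in the greenhouse. Test chemicals, formulated with surfactant in a non-phytotoxic solvent mixture, had been applied preemergence to seeds in silt loam soil or postemergence to 1- to 4-leaf plants in potting medium.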"}, "[2]": {"tested_on": "morningglory", "test": "Test E preemergence", "assay_type": "in vivo, Ipomoea coccinea", "details": "for Morningglory plant response rating: scale 0 to 100 (0 no effect, 100 complete control); for Plant response rating, Morningglory: scale 0 to 100, 0 no effect, 100 complete control", "summary_of_the_method": "as §1"}, "[3]": {"tested_on": "green foxtail", "test": "Test E preemergence", "assay_type": "in vivo, Setaria viridis", "details": "for Foxtail, Green plant response rating: scale 0 to 100 (0 no effect, 100 complete control); for Plant response rating, Foxtail, Green: scale 0 to 100, 0 no effect, 100 complete control", "summary_of_the_method": "as §1"}, "[4]": {"tested_on": "fall panicum", "test": "Test E preemergence", "assay_type": "in vivo, Panicum dichotomiflorum", "details": "for Panicum, Fall plant response rating: scale 0 to 100 (0 no effect, 100 complete control); for Plant response rating, Panicum, Fall: scale 0 to 100, 0 no effect, 100 complete control", "summary_of_the_method": "as §1"}, "[5]": {"tested_on": "ragweed", "test": "Test E preemergence", "assay_type": "in vivo, Ambrosia elatior", "details": "for Ragweed plant response rating: scale 0 to 100 (0 no effect, 100 complete control); for Plant response rating, Ragweed: scale 0 to 100, 0 no effect, 100 complete control", "summary_of_the_method": "as §1"}, "[6]": {"tested_on": "sedge, umbrella", "test": "Test C flooded paddy test", "assay_type": "in vivo, Cyperus difformis", "details": "Flood, scale 0 to 100 (0 no effect, 100 complete control), 13 to 15 days", "summary_of_the_method": "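Compound was added to standing water 3 cm above soil, flood maintained, and plants held in a greenhouse before visual scoring against controls at 13 to 15 days.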"}, "[7]": {"tested_on": "ragweed", "test": "Test A postemergence", "assay_type": "in vivo, Ambrosia elatior", "details": "0 to 100 scale where 0 is no effect and 100 is complete control", "summary_of_the_method": "(§2)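 Injury scores run from 0, no effect, to 100, complete control, judged by eye against untreated plants roughly 10 days after treatment. Chemicals carried a surfactant in a non-phytotoxic solvent and went onto loam–sand soil preemergence or onto one- to two-leaf seedlings postemergence.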"}, "[8]": {"tested_on": "Italian ryegrass", "test": "Test A postemergence", "assay_type": "in vivo, Lolium multiflorum", "details": "0 to 100 scale where 0 is no effect and 100 is complete control", "summary_of_the_method": "as §2"}, "[9]": {"tested_on": "johnsongrass", "test": "Test E preemergence", "assay_type": "in vivo, Sorghum halepense", "details": "for Johnsongrass plant response rating: scale 0 to 100 (0 no effect, 100 complete control); for Plant response rating, Johnsongrass: scale 0 to 100, 0 no effect, 100 complete control", "summary_of_the_method": "as §1"}, "[10]": {"tested_on": "arrowleaf sida", "test": "Test E preemergence", "assay_type": "in vivo, Sida rhombifolia", "details": "for Arrowleaf Sida plant response rating: scale 0 to 100 (0 no effect, 100 complete control); for Plant response rating, Arrowleaf Sida: scale 0 to 100, 0 no effect, 100 complete control", "summary_of_the_method": "as §1"}, "[11]": {"tested_on": "hairy beggarticks", "test": "Test E preemergence", "assay_type": "in vivo, Bidens pilosa", "details": "for Beggarticks plant response rating: scale 0 to 100 (0 no effect, 100 complete control); for Plant response rating, Beggarticks: scale 0 to 100, 0 no effect, 100 complete control", "summary_of_the_method": "as §1"}, "[12]": {"tested_on": "velvetleaf", "test": "Test E preemergence", "assay_type": "in vivo, Abutilon theophrasti", "details": "for Velvetleaf plant response rating: scale 0 to 100 (0 no effect, 100 complete control); for Plant response rating, Velvetleaf: scale 0 to 100, 0 no effect, 100 complete control", "summary_of_the_method": "as §1"}, "[13]": {"tested_on": "nightshade", "test": "Test E preemergence", "assay_type": "in vivo, Solanum ptycanthum", "details": "for Nightshade plant response rating: scale 0 to 100 (0 no effect, 100 complete control); for Plant response rating, Nightshade: scale 0 to 100, 0 no effect, 100 complete control", "summary_of_the_method": "as §1"}, "[14]": {"tested_on": "large (Lg) crabgrass", "test": "Test E preemergence", "assay_type": "in vivo, Digitaria sanguinalis", "details": "for Crabgrass, Large plant response rating: scale 0 to 100 (0 no effect, 100 complete control); for Plant response rating, Crabgrass, Large: scale 0 to 100, 0 no effect, 100 complete control", "summary_of_the_method": "as §1"}}, "data": [{"smiles": "CCOc1cnn(-c2c(C#N)cccc2Oc2ncc(F)cn2)c1", "note": "[Compound 89]", "values": [{"measurement": "Dayflower, VA plant response rating", "setting": "[1]; 31 g ai/ha", "result": 0}, {"measurement": "Dayflower, VA plant response rating", "setting": "[1]; 62 g ai/ha", "result": 60}, {"measurement": "Plant response rating, Dayflower, VA", "setting": "[1]; 125 g ai/ha", "result": 80}, {"measurement": "Plant response rating, Dayflower, VA", "setting": "[1]; 250 g ai/ha", "result": 98}, {"measurement": "Morningglory plant response rating", "setting": "[2]; 31 g ai/ha", "result": 30}, {"measurement": "Morningglory plant response rating", "setting": "[2]; 62 g ai/ha", "result": 65}, {"measurement": "Plant response rating, Morningglory", "setting": "[2]; 125 g ai/ha", "result": 75}, {"measurement": "Plant response rating, Morningglory", "setting": "[2]; 250 g ai/ha", "result": 100}, {"measurement": "Foxtail, Green plant response rating", "setting": "[3]; 31 g ai/ha", "result": 0}, {"measurement": "Foxtail, Green plant response rating", "setting": "[3]; 62 g ai/ha", "result": 35}, {"measurement": "Plant response rating, Foxtail, Green", "setting": "[3]; 125 g ai/ha", "result": 65}, {"measurement": "Plant response rating, Foxtail, Green", "setting": "[3]; 250 g ai/ha", "result": 85}, {"measurement": "Panicum, Fall plant response rating", "setting": "[4]; 31 g ai/ha", "result": 0}, {"measurement": "Panicum, Fall plant response rating", "setting": "[4]; 62 g ai/ha", "result": 65}, {"measurement": "Plant response rating, Panicum, Fall", "setting": "[4]; 125 g ai/ha", "result": 100}, {"measurement": "Plant response rating, Panicum, Fall", "setting": "[4]; 250 g ai/ha", "result": 100}, {"measurement": "Ragweed plant response rating", "setting": "[5]; 31 g ai/ha", "result": 65}, {"measurement": "Ragweed plant response rating", "setting": "[5]; 62 g ai/ha", "result": 80}, {"measurement": "Plant response rating, Ragweed", "setting": "[5]; 125 g ai/ha", "result": 80}, {"measurement": "Plant response rating, Ragweed", "setting": "[5]; 250 g ai/ha", "result": 90}, {"measurement": "Plant response rating, Sedge, Umbrella", "setting": "[6]; 62 g ai/ha", "result": 0}, {"measurement": "Plant response rating, Sedge, Umbrella", "setting": "[6]; 125 g ai/ha", "result": 50}, {"measurement": "Plant response rating, Sedge, Umbrella", "setting": "[6]; 250 g ai/ha", "result": 70}, {"measurement": "Plant response rating, Ragweed", "setting": "[7]; 125 g ai/ha", "result": 30}, {"measurement": "Plant response rating, Ragweed", "setting": "[7]; 500 g ai/ha", "result": 90}, {"measurement": "Plant response rating, Ryegrass, Italian", "setting": "[8]; 125 g ai/ha", "result": 0}, {"measurement": "Plant response rating, Ryegrass, Italian", "setting": "[8]; 500 g ai/ha", "result": 90}, {"measurement": "Johnsongrass plant response rating", "setting": "[9]; 31 g ai/ha", "result": 0}, {"measurement": "Johnsongrass plant response rating", "setting": "[9]; 62 g ai/ha", "result": 10}, {"measurement": "Plant response rating, Johnsongrass", "setting": "[9]; 125 g ai/ha", "result": 50}, {"measurement": "Plant response rating, Johnsongrass", "setting": "[9]; 250 g ai/ha", "result": 100}, {"measurement": "Arrowleaf Sida plant response rating", "setting": "[10]; 31 g ai/ha, preemergence", "result": 50}, {"measurement": "Plant response rating, Arrowleaf Sida", "setting": "[10]; Preemergence, 62 g ai/ha", "result": 75}, {"measurement": "Plant response rating, Arrowleaf Sida", "setting": "[10]; preemergence, 125 g ai/ha", "result": 100}, {"measurement": "Plant response rating, Arrowleaf Sida", "setting": "[10]; preemergence, 250 g ai/ha", "result": 100}, {"measurement": "Beggarticks plant response rating", "setting": "[11]; 31 g ai/ha, preemergence", "result": 35}, {"measurement": "Plant response rating, Beggarticks", "setting": "[11]; Preemergence, 62 g ai/ha", "result": 60}, {"measurement": "Plant response rating, Beggarticks", "setting": "[11]; preemergence, 125 g ai/ha", "result": 80}, {"measurement": "Plant response rating, Beggarticks", "setting": "[11]; preemergence, 250 g ai/ha", "result": 95}, {"measurement": "Velvetleaf plant response rating", "setting": "[12]; 31 g ai/ha", "result": 20}, {"measurement": "Velvetleaf plant response rating", "setting": "[12]; 62 g ai/ha", "result": 65}, {"measurement": "Plant response rating, Velvetleaf", "setting": "[12]; 125 g ai/ha", "result": 90}, {"measurement": "Plant response rating, Velvetleaf", "setting": "[12]; 250 g ai/ha", "result": 100}, {"measurement": "Nightshade plant response rating", "setting": "[13]; 62 g ai/ha", "result": 80}, {"measurement": "Plant response rating, Nightshade", "setting": "[13]; 125 g ai/ha", "result": 100}, {"measurement": "Plant response rating, Nightshade", "setting": "[13]; 250 g ai/ha", "result": 100}, {"measurement": "Crabgrass, Large plant response rating", "setting": "[14]; 31 g ai/ha", "result": 35}, {"measurement": "Crabgrass, Large plant response rating", "setting": "[14]; 62 g ai/ha", "result": 85}, {"measurement": "Plant response rating, Crabgrass, Large", "setting": "[14]; 125 g ai/ha", "result": 100}, {"measurement": "Plant response rating, Crabgrass, Large", "setting": "[14]; 250 g ai/ha", "result": 100}]}, {"smiles": "FC(F)c1cccc(Oc2ncc(Cl)cn2)c1-n1cc(Br)cn1", "note": "[Compound 194, 2-[2-(4-bromo-1H-pyrazol-1-yl)-3-(difluoromethyl)phenoxy]-5-chloropyrimidine]", "values": [{"measurement": "Dayflower, VA plant response rating", "setting": "[1]; 31 g ai/ha", "result": 0}, {"measurement": "Dayflower, VA plant response rating", "setting": "[1]; 62 g ai/ha", "result": 40}, {"measurement": "Morningglory plant response rating", "setting": "[2]; 31 g ai/ha", "result": 0}, {"measurement": "Morningglory plant response rating", "setting": "[2]; 62 g ai/ha", "result": 0}, {"measurement": "Foxtail, Green plant response rating", "setting": "[3]; 31 g ai/ha", "result": 35}, {"measurement": "Foxtail, Green plant response rating", "setting": "[3]; 62 g ai/ha", "result": 80}, {"measurement": "Panicum, Fall plant response rating", "setting": "[4]; 31 g ai/ha", "result": 80}, {"measurement": "Panicum, Fall plant response rating", "setting": "[4]; 62 g ai/ha", "result": 100}, {"measurement": "Ragweed plant response rating", "setting": "[5]; 31 g ai/ha", "result": 0}, {"measurement": "Ragweed plant response rating", "setting": "[5]; 62 g ai/ha", "result": 20}, {"measurement": "Plant response rating, Sedge, Umbrella", "setting": "[6]; 31 g ai/ha", "result": 50}, {"measurement": "Plant response rating, Sedge, Umbrella", "setting": "[6]; 62 g ai/ha", "result": 75}, {"measurement": "Plant response rating, Sedge, Umbrella", "setting": "[6]; 125 g ai/ha", "result": 85}, {"measurement": "Plant response rating, Sedge, Umbrella", "setting": "[6]; 250 g ai/ha", "result": 95}, {"measurement": "Johnsongrass plant response rating", "setting": "[9]; 31 g ai/ha", "result": 0}, {"measurement": "Johnsongrass plant response rating", "setting": "[9]; 62 g ai/ha", "result": 50}, {"measurement": "Arrowleaf Sida plant response rating", "setting": "[10]; 31 g ai/ha, preemergence", "result": 35}, {"measurement": "Arrowleaf Sida plant response rating", "setting": "[10]; 62 g ai/ha, preemergence", "result": 100}, {"measurement": "Beggarticks plant response rating", "setting": "[11]; 31 g ai/ha, preemergence", "result": 0}, {"measurement": "Beggarticks plant response rating", "setting": "[11]; 62 g ai/ha, preemergence", "result": 0}, {"measurement": "Velvetleaf plant response rating", "setting": "[12]; 31 g ai/ha", "result": 5}, {"measurement": "Velvetleaf plant response rating", "setting": "[12]; 62 g ai/ha", "result": 25}, {"measurement": "Nightshade plant response rating", "setting": "[13]; 31 g ai/ha", "result": 95}, {"measurement": "Nightshade plant response rating", "setting": "[13]; 62 g ai/ha", "result": 95}, {"measurement": "Crabgrass, Large plant response rating", "setting": "[14]; 31 g ai/ha", "result": 85}, {"measurement": "Crabgrass, Large plant response rating", "setting": "[14]; 62 g ai/ha", "result": 95}]}]}
